Measurements from US20090144853A1, “Control of Gene Expression in Plants” (UNIVERSITY OF DURHAM, priority 2005, published 2009).

Experiments:
LRI-1 promoter = experiment: GUS histochemical staining of LRI-1 promoter trap seedlings grown with hormones or hormone signalling inhibitors; assay type: in vivo, Arabidopsis thaliana
Method: (§1) The expression of the GUS promoter trap was analysed over a developmental time course in uninfected Arabidopsis seedlings that had been grown aseptically on a synthetic growth medium. Prior to analysis, seeds of the transgenic line were surface sterilised by treatment with 70% (v/v) ethanol for 3 minutes and 10% (v/v) commercial bleach for 20 minutes. The seeds were then washed with water and grown on half-strength Murashige and Skoog medium (½MS), supplemented with 10 g/l sucrose. The seedlings were grown in the presence of continuous light at 25° C. Tissue localisation of the GUS enzyme activity was determined at intervals after germination by staining for up to 12 hours at 37° C. in 1 mM 5-bromo-4-chloro-3-indoyl-β-D-glucuronic acid (X-gluc), according to the method of Jefferson et al (1987, EMBO J. 6, 3901-3907), wherein the method was modified by the use of buffer comprising 100 mM sodium phosphate (pH 7.0), 10 mM EDTA, 0.1% (v/v) Triton X-100 and 1 mM potassium ferricyanide to inhibit diffusion of the reaction intermediate. This solution was known as GUS buffer. Excess chlorophyll was removed by soaking the stained tissues in 70% (v/v) ethanol.
(§2) In order to investigate the regulation of the LRI-1 promoter activity, seeds that were homozygous for the LRI-1 gene fusion were germinated aseptically on ½MS10 medium in the presence or absence of hormones. At 9 dpg, the seedlings were subsequently transferred to ½MS10 medium containing either hormones or inhibitors of hormone signalling. Hormone treatments used for the purposes of this invention included, but were not limited to: 0.25, 2.5 or 10 μM 1-naphthaleneacetic acid (NAA, a synthetic auxin); 0.25, 2.5 or 10 μM kinetin (a synthetic cytokinin); 10 or 100 μM silver nitrate (an inhibitor of ethylene signalling); 10 or 100 μM 1-aminocyclopropane-1-carboxylic acid (ACC, a precursor of ethylene); 10 or 100 μM naphthylphthalamic acid (NPA) or 10 μM triiodobenozoic acid (TIBA). NPA and TIBA are inhibitors of polar auxin transport. After growth on medium in the presence or absence of hormones, the seedlings were transferred to a solution of GUS buffer and analysed for GUS activity (indicated by the presence of a blue precipitate).

AtPRB2 promoter = experiment: GUS activity of 2.47 kb AtPRB2 promoter fragment::GUS transgenic seedlings treated with exogenous auxin; assay type: in vivo, Arabidopsis thaliana; conditions: 9 dpg on ½MS10, then 2.5 μM for a further 1, 3 or 5 days; except at the root tips
Source text: To confirm that the 5′ flanking sequence upstream of the left T-DNA was responsible for the observed GUS activity in line LRI-1, the sequence was cloned and fused to each of the gusA and the GFP reporter genes respectively. The technique of PCR was used to amplify a 1.47 kb genomic fragment immediately upstream of the left T-DNA border. This 1.47 kb fragment was cloned upstream of the respective reporter genes and subsequently introduced into Arabidopsis thaliana plants by the dipping method of Agrobacterium tumefaciens-mediated transformation (Clough and Bent 1998 Plant J. 16, 735-743). In order to determine whether the promoter activity of the cloned sequence pLRI-1 was similar to the promoter region upstream of gene AtPRB2, a 2.47 kb fragment immediately upstream of the gene was cloned. In addition, shorter fragments which were 1 kb, 0.5 kb and 0.2 kb upstream of AtPRB2 were cloned and fused to the gusA reporter gene in the binary vector pΔGUSCIRCE (Casson et al, 2002 Plant Cell 14, 1705-1721), before introduction into plants by Agrobacterium-mediated transformation.
Using a similar approach, the activity of the 2.47 kb AtPRB2 gene fragment was determined in transgenic Arabidopsis lines. […]

[1] = tested on: Arabidopsis thaliana seedlings; experiment: Root development of LRI-1 seedlings grown with hormones or hormone signalling inhibitors; assay type: in vivo
Method: as §1, §2

[2] = 9 days without compound, then 10 μM for a further 2 days
[3] = grown on 2.5 μM or 10 μM for up to 9 days
[4] = transferred to compound after growth on hormone-free medium, higher concentrations

`NC1(C(=O)O)CC1` [ACC, 1-aminocyclopropane-1-carboxylic acid] was tested, and the “level of GUS activity” value (LRI-1 promoter; germinated and grown in presence of 10 μM for up to 9 dpg) was “reduction in the level of GUS activity” and the GUS activity (LRI-1 promoter; grown in presence of 100 μM, stronger expression at the base of lateral roots) was “induction of GUS activity in the hypocotyl”.

In the case of `O=C(O)Cc1cccc2ccccc12` [NAA, 1-naphthaleneacetic acid], the “GUS activity in root” value (LRI-1 promoter; 9 dpg on ½MS10, then transfer to 0.25, 2.5 or 10 μM NAA for 1, 3 or 5 days, except at the root tip) is reported as “strong GUS activity throughout the root”, the “GUS activity in aerial parts” value (LRI-1 promoter; after transfer at 9 dpg, two lower concentrations of NAA tested) is reported as “No GUS activity was detected” and the GUS activity (LRI-1 promoter; seedlings germinated on ½MS10 in presence of NAA (0.25, 2.5 or 10 μM), most prominent at 10 μM) is reported as “strong throughout the root of the seedling”. For the same molecule, the “LRI-1::GUS expression” value (LRI-1 promoter; seedlings treated with 2.5 μM exogenous auxin) was “induction of LRI-1::GUS expression throughout the Arabidopsis root”, the “AtPRB2::GUS activity” value (AtPRB2 promoter) was “strong induction of AtPRB2::GUS activity throughout the root” and the adventitious root development ([1]; after transfer at 9 dpg, 2.5 μM NAA) was “developed adventitious roots on the hypocotyl”. The adventitious root development ([1]; grown for 9 dpg in presence of auxin, roots GUS-positive) was “adventitious roots developed from the shortened hypocotyl” and the root elongation ([1]; seedlings germinated on ½MS10 in presence of NAA, most prominent at 10 μM) was “dramatic reduction in root elongation”.

For `O=C(O)c1cc(I)cc(I)c1I` [TIBA, triiodobenozoic acid], the “existing GUS activity at previously formed lateral roots” value (LRI-1 promoter; [2]) was “remained unaffected”, the GUS activity (LRI-1 promoter; grown 5 dpg in presence of 10 μM, some seedlings, at sites where lateral roots would normally emerge) was “localised but low level GUS activity” and the “new lateral root formation” value [1, 2] was “inhibition of new lateral root formation”. The lateral root development ([1]; germinated and grown 5 dpg in presence of 10 μM) was “No lateral root development was observed”.

With `c1coc(CNc2ncnc3[nH]cnc23)c1` [kinetin] the GUS activity (LRI-1 promoter; [3]) was “detected as normal”, the GUS activity (LRI-1 promoter; [4]) was “detectable as normal” and the lateral root formation [1, 3] was “no lateral root formation was observed”. For the same molecule, the lateral root formation [1, 4] was “reduction in lateral root formation”.

With `O=[N+]([O-])[O-].[Ag+]` [silver nitrate] the “GUS activity associated with the LRI-1 promoter” value (LRI-1 promoter; germination and growth for 3, 5 or 9 days in presence of 10 μM) was “reduction in GUS activity”.
